Laboratory results taken from patent publication US11840686B2, “Modulation of prekallikrein (PKK) expression” (Ionis Pharmaceuticals, Inc., priority 2013, dated 2023).
Strand notation (5' to 3'): a small letter for the sugar, then the base; units joined by * are phosphorothioate-linked, units joined directly phosphodiester-linked; [ ] holds rarer units or linkages, { } end groups; capitals alone tell only the bases. e = 2'-O-(2-methoxyethyl) (MOE); [5mC] = 5-methylcytosine; d = 2'-deoxy (DNA)

Tested on: human PKK mRNA
Test: Antisense inhibition of human PKK mRNA in HepaRG cells, 5,000 nM (Example 2)
Format: cell-based
Outline: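 qRT-PCR (RTS3454) read-out, RIBOGREEN-normalized; % inhibition vs untreated cells. HepaRG, 20,000 cells/well, electroporation, 5,000 nM ASO, ~24 h.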

[1] = Table 8, HepaRG cells, electroporation with 5,000 nM antisense oligonucleotide, approx. 24 hours, PKK mRNA by RT-PCR (RTS3454), relative to untreated control cells
[2] = Table 9 experiment, HepaRG cells, 20,000 cells per well, electroporation with 5,000 nM antisense oligonucleotide, approx. 24 hours, PKK mRNA by RT-PCR (RTS3454), relative to untreated control cells
[3] = Table 10 experiment, HepaRG cells, 20,000 cells per well, electroporation with 5,000 nM antisense oligonucleotide, approx. 24 hours, PKK mRNA by RT-PCR (RTS3454), relative to untreated control cells
[4] = human PKK mRNA in HepaRG cells, 5-10-5 gapmers, Table 14
[5] = human PKK mRNA, HepaRG cells, 5-10-5 motif oligonucleotides targeting SEQ ID NO: 1 and 10
[6] = HepaRG cells, electroporation with 5,000 nM antisense oligonucleotide, approximately 24 hours, PKK mRNA by RT-PCR (RTS3454), relative to untreated control cells, Table 5 experiment
[7] = Table 13, human PKK mRNA in HepaRG cells, 5-10-5 gapmers
[8] = HepaRG cells, 5,000 nM antisense oligonucleotide, 5-10-5 gapmers, Table 17
[9] = HepaRG cells, electroporation with 5,000 nM antisense oligonucleotide, approximately 24 hours, PKK mRNA by RT-PCR (RTS3454), relative to untreated control cells, Table 6 experiment
[10] = human PKK mRNA, HepaRG cells, 5,000 nM antisense oligonucleotide, Table 18
[11] = HepaRG cells, 5,000 nM antisense oligonucleotide, 5-10-5 gapmers, Table 16

With “546281 (eG*eT*eA*eA*e[5mC]*d[5mC]*dA*dG*dA*dG*d[5mC]*dT*d[5mC]*d[5mC]*d[5mC]*eT*eT*eG*eT*eG; antisense) [compound 546281]” the “% inhibition” value [1] was 85%.

For “547480 (antisense eT*eT*e[5mC]*eT*eT*dT*dA*dT*dA*dG*d[5mC]*d[5mC]*dA*dG*d[5mC]*eA*e[5mC]*eA*eG*eA) [compound 547480]”, the “% inhibition” value [2] was 60% and the “% inhibition” value [3] was 49%.

For “546880 (eG*eT*eT*eT*e[5mC]*d[5mC]*dT*dA*dT*dA*dA*d[5mC]*dA*dG*dT*eA*eT*e[5mC]*eA*e[5mC]; antisense) [compound 546880]”, the “% inhibition” value [4] was 41%.

With “547427 (eA*eA*eG*eA*eG*dT*dA*dA*d[5mC]*d[5mC]*dA*dG*dA*dG*d[5mC]*eT*e[5mC]*e[5mC]*e[5mC]*eT; antisense) [compound 547427]” the “% inhibition” value [1] was 79%.

With “546888 (eT*e[5mC]*e[5mC]*eT*eA*dT*dG*dT*d[5mC]*dA*d[5mC]*dT*dG*dT*dA*e[5mC]*e[5mC]*eT*eA*eT; antisense) [compound 546888]” the “% inhibition” value [5] was 78%.

In the case of “546863 (eT*eA*eA*e[5mC]*eT*dA*dT*dA*dA*d[5mC]*dA*dA*dT*dA*dT*e[5mC]*eA*e[5mC]*eT*eG; antisense) [compound 546863]”, the “% inhibition” value [4] is reported as 21%.

For “546150 (e[5mC]*eA*eT*e[5mC]*e[5mC]*d[5mC]*d[5mC]*dA*d[5mC]*d[5mC]*dT*d[5mC]*dT*dG*dA*eA*eG*eA*eA*eG; antisense) [compound 546150]”, the “% inhibition” value [6] was 58%.

For “548724 (DNA eT*e[5mC]*eA*d[5mC]*dT*dG*dT*dA*d[5mC]*dT*dA*dG*dT*eT*eT*e[5mC]*e[5mC]; antisense) [compound 548724]”, the “% inhibition” value (HepaRG cells, 5,000 nM antisense oligonucleotide, human PKK mRNA, Table 18) was 61%.

“546260 (eG*eA*eA*eA*eA*dA*d[5mC]*dT*dG*dA*d[5mC]*dA*dG*d[5mC]*dG*eA*eA*eT*e[5mC]*eA; antisense) [compound 546260]” was tested, and the “% inhibition” value [1] was 84%.

For “546789 (eG*e[5mC]*eT*eT*e[5mC]*dT*d[5mC]*dT*dA*dT*d[5mC]*dT*d[5mC]*d[5mC]*d[5mC]*eA*eG*eT*eG*eT; antisense) [compound 546789]”, the “% inhibition” value [7] was 79%.

“546599 (eA*eA*eG*eA*eG*dT*dA*dA*dG*d[5mC]*d[5mC]*dT*dT*d[5mC]*dA*e[5mC]*eA*eG*eG*eG; antisense) [compound 546599]” was tested, and the “% inhibition” value [8] was 82%.

For “547588 (eA*e[5mC]*eT*eA*eT*dA*dA*d[5mC]*dA*dG*dT*dA*dT*d[5mC]*dA*e[5mC]*eT*eG*eT*e[5mC]; antisense) [compound 547588]”, the “% inhibition” value [4] was 83%.

“546212 (antisense eA*eG*eA*eT*eG*d[5mC]*dT*dG*dG*dA*dA*dG*dA*dT*dG*eT*eT*e[5mC]*eA*eT) [compound 546212]” was tested, and the “% inhibition” value [9] was 48%.

With “547745 (eT*eT*eG*eG*eT*dG*dG*dT*dG*dG*dG*dA*dT*dT*dG*eG*eT*eG*eG*e[5mC]; antisense) [compound 547745]” the “% inhibition” value [8] was 55%.

For “547296 (antisense eT*eG*e[5mC]*eA*e[5mC]*d[5mC]*dT*d[5mC]*dA*dT*d[5mC]*dT*dG*dG*d[5mC]*eA*eG*eT*eA*eT) [compound 547296]”, the “% inhibition” value [6] was 72%.

“547653 (eA*eT*e[5mC]*eA*e[5mC]*dT*dG*dT*dA*d[5mC]*d[5mC]*dT*dA*dT*dA*eA*e[5mC]*eA*eG*eT; antisense) [compound 547653]” was tested, and the “% inhibition” value [5] was 57%.

For “548765 (antisense eA*eT*eA*eT*d[5mC]*dA*d[5mC]*dT*dG*dT*d[5mC]*d[5mC]*dT*eA*eT*eA*eA) [compound 548765]”, the “% inhibition” value [10] was 0%.

In the case of “546149 (e[5mC]*e[5mC]*e[5mC]*e[5mC]*eA*d[5mC]*d[5mC]*dT*d[5mC]*dT*dG*dA*dA*dG*dA*eA*eG*eG*e[5mC]*eG; antisense) [compound 546149]”, the “% inhibition” value [6] is reported as 83%.

In the case of “547702 (antisense eA*e[5mC]*eA*eT*e[5mC]*dA*d[5mC]*dT*dG*dT*dA*d[5mC]*d[5mC]*dT*dA*eT*eA*eA*e[5mC]*eT) [compound 547702]”, the “% inhibition” value [11] is reported as 44%.

In the case of “547595 (antisense eA*e[5mC]*eT*eA*eG*dT*dT*dT*d[5mC]*d[5mC]*dT*dA*dT*dA*dA*e[5mC]*eT*eA*eT*eA) [compound 547595]”, the “% inhibition” value [4] is reported as 21%.

In the case of “546773 (eT*e[5mC]*eT*e[5mC]*eT*dA*dG*d[5mC]*dA*dT*d[5mC]*d[5mC]*dT*dA*dG*eT*e[5mC]*e[5mC]*eT*e[5mC]; antisense) [compound 546773]”, the “% inhibition” value [7] is reported as 67%.

“547657 (eA*e[5mC]*eA*eA*eT*dA*dT*d[5mC]*dA*d[5mC]*dT*dG*dT*d[5mC]*d[5mC]*eT*eA*eT*eA*eA; antisense) [compound 547657]” was tested, and the “% inhibition” value [5] was 43%.

In the case of “547756 (antisense eG*eG*eG*eT*e[5mC]*dT*dT*dG*d[5mC]*dT*d[5mC]*d[5mC]*dA*d[5mC]*d[5mC]*e[5mC]*eA*e[5mC]*eA*eT) [compound 547756]”, the “% inhibition” value [8] is reported as 49%.

“546357 (antisense eG*e[5mC]*eT*eT*eT*dT*d[5mC]*d[5mC]*dA*dT*d[5mC]*dA*d[5mC]*dT*dG*e[5mC]*eT*e[5mC]*eT*eG) [compound 546357]” was tested, and the “% inhibition” value (HepaRG cells, electroporation, 5,000 nM antisense oligonucleotide, approx. 24 hours, primer probe set RTS3454, relative to untreated control cells, Table 11) was 79%.

With “547441 (antisense eG*eG*eT*eG*eT*d[5mC]*d[5mC]*dT*dA*dT*dG*dA*dG*dT*dG*eA*e[5mC]*e[5mC]*e[5mC]*eT) [compound 547441]” the “% inhibition” value [1] was 62%.

In the case of “547376 (eG*eA*eA*eT*eG*dT*dA*dA*dA*dG*dA*dA*dG*dA*dG*eG*e[5mC]*eA*eG*eT; antisense) [compound 547376]”, the “% inhibition” value (Table 7, HepaRG cells, electroporation with 5,000 nM antisense oligonucleotide, approx. 24 hours, PKK mRNA by RT-PCR (RTS3454), relative to untreated control cells) is reported as 43%.

For “548755 (antisense eT*eA*eT*e[5mC]*dA*d[5mC]*dT*dG*dT*dA*d[5mC]*dT*dA*dG*eT*eT*eT*e[5mC]) [compound 548755]”, the “% inhibition” value [10] was 20%.

For “546770 (eG*eT*eG*eG*eA*d[5mC]*dG*dA*d[5mC]*dT*dG*d[5mC]*d[5mC]*d[5mC]*dT*eG*eT*eG*e[5mC]*e[5mC]; antisense) [compound 546770]”, the “% inhibition” value [7] was 74%.

In the case of “547295 (antisense eA*e[5mC]*e[5mC]*eT*e[5mC]*dA*dT*d[5mC]*dT*dG*dG*d[5mC]*dA*dG*dT*eA*eT*eT*eG*eG) [compound 547295]”, the “% inhibition” value [6] is reported as 88%.

“547560 (eG*eA*e[5mC]*eG*eG*dT*d[5mC]*dA*d[5mC]*d[5mC]*d[5mC]*dA*dG*d[5mC]*d[5mC]*e[5mC]*eT*eG*eA*e[5mC]; antisense) [compound 547560]” was tested, and the “% inhibition” value [7] was 42%.

In the case of “546329 (antisense e[5mC]*e[5mC]*eT*eT*e[5mC]*dG*dA*dG*dA*dA*dG*d[5mC]*d[5mC]*d[5mC]*d[5mC]*eA*eT*e[5mC]*e[5mC]*eG) [compound 546329]”, the “% inhibition” value [2] is reported as 18% and the “% inhibition” value [3] is reported as 8%.

“547434 (eA*eG*eA*eG*eT*dT*dT*dG*dT*dT*d[5mC]*d[5mC]*dT*d[5mC]*d[5mC]*eA*eA*e[5mC]*eA*eA; antisense) [compound 547434]” was tested, and the “% inhibition” value [1] was 54%.

“547713 (antisense e[5mC]*eT*e[5mC]*eA*eA*dT*dG*d[5mC]*d[5mC]*dA*d[5mC]*d[5mC]*d[5mC]*dT*dT*eT*e[5mC]*e[5mC]*e[5mC]*e[5mC]) [compound 547713]” was tested, and the “% inhibition” value [11] was 37%.

With “547438 (antisense eG*eG*eG*e[5mC]*e[5mC]*dA*d[5mC]*dT*d[5mC]*dT*d[5mC]*d[5mC]*d[5mC]*d[5mC]*dA*eA*eG*eA*eA*eG) [compound 547438]” the “% inhibition” value [1] was 82%.

With “546155 (e[5mC]*e[5mC]*eT*e[5mC]*eA*dT*d[5mC]*dT*dG*dG*d[5mC]*dA*dG*dT*dA*eT*eT*eG*eG*eG; antisense) [compound 546155]” the “% inhibition” value [6] was 47%.

In the case of “546909 (eA*eA*e[5mC]*eA*eA*dT*dA*dT*d[5mC]*dA*d[5mC]*dT*dG*dT*dA*e[5mC]*e[5mC]*eT*eT*eT; antisense) [compound 546909]”, the “% inhibition” value [5] is reported as 44%.

“546279 (eG*e[5mC]*eT*e[5mC]*e[5mC]*d[5mC]*dT*dT*dG*dT*dG*dT*d[5mC]*d[5mC]*d[5mC]*eA*eT*eA*e[5mC]*eG; antisense) [compound 546279]” was tested, and the “% inhibition” value [1] was 82%.

“547323 (antisense eT*eT*eG*e[5mC]*eT*dT*d[5mC]*dA*dA*dG*dG*dA*dA*dT*dG*eT*e[5mC]*e[5mC]*eA*eG) [compound 547323]” was tested, and the “% inhibition” value [9] was 56%.

In the case of “546325 (antisense e[5mC]*eA*eG*eT*eT*dG*dG*dT*dA*dT*dA*dA*dA*dT*dT*eG*eT*eG*e[5mC]*eT) [compound 546325]”, the “% inhibition” value [2] is reported as 74% and the “% inhibition” value [3] is reported as 79%.

In the case of “546970 (eG*e[5mC]*e[5mC]*e[5mC]*eA*dA*dG*d[5mC]*d[5mC]*dT*dA*d[5mC]*dA*dT*dG*e[5mC]*eA*eT*eA*e[5mC]; antisense) [compound 546970]”, the “% inhibition” value [11] is reported as 61%.

“546186 (antisense eA*eT*eG*eT*e[5mC]*dT*d[5mC]*dG*dA*dT*dG*dG*d[5mC]*dA*dA*eG*e[5mC]*eA*e[5mC]*eT) [compound 546186]” was tested, and the “% inhibition” value [9] was 84%.
